# Measured values published in patent US11479604B2, “Immunomodulatory peptides and methods for modulating the immune system in a subject” (Recepta Biopharma S.A., priority 2017, dated 2022).
# Entries after “also recorded” stand apart in the source; their conditions may differ.
# Assays:
# [1] = system: B16F10-Nex2 melanoma cells; assay: Syngeneic metastatic melanoma model, lung nodule count; format: in vivo, C57BL/6 mice
# Description: (§1) Male C57BL/6 mice, 6 to 8-week-old were obtained from the Center for Development of Experimental Models (CEDEME), Federal University of Sao Paulo (UNIFESP). For the in vivo metastatic model, C57BL/6 mice received one intravenous (i.v.) injection of 2×10^5 viable B16-F10-Next melanoma cells in 100 μL. […] The control group received 100 μL PBS. Twenty-two days later, mice (minimum n=3 per group) had their lungs harvested, and the number of macroscopic melanotic nodules were counted. The Ethical Committee of Federal University of São Paulo, Project no. 1234, 2011, approved all experiments with animals, according to International guidelines. For the subcutaneous model, mice were injected with 5×10^5 tumor cells suspended in 100 μL of PBS in the right flank via the subcutaneous route. The peptide (300 μg) was solubilized in 10 μL of distilled H2O and 90 μL of PBS and injected per mouse via the intraperitoneal route. The administration of the peptide was performed in 5 alternate days initiating one day after tumor challenge. Tumor longitudinal diameter (D) and transverse diameter (d) were measured every 2 days until the tumor volume reached 3,000 mm3. Animals were sacrificed when the allowed volume was reached. Volume was calculated using the formula v=Dd^2×0.52. Tumor Cell Growth In Vitro and In Vivo Details of the in vitro tumor cell growth, cytotoxicity tests, determination of viable cells and in vivo protection experiments with B16F10 cells in a mouse metastatic model are described in Polonelli et al. (PLoS One. 3(6):e2371, 2008) and Dobroff et al. (Transl. Onc., 3: 204-217, 2010).
# 6 to 8 Week-old C57BL/6 mice (n=5, per group) were intravenously challenged with 1×10^5 of syngeneic B16F10-Nex2 viable cells in 0.1 mL of RPMI medium without FBS, and treated on the next day with intraperitoneal doses of 300 μg (10 mg/kg) each, of Scr1, Scr2, Scr3 or Scr4 peptide or with the control vehicle (PBS) in alternate days, total of 5 doses. After 14 days, mice were euthanized, and lungs were harvested and assessed for metastatic colonization. The number of metastatic lesions was quantified using a stereo microscope (Nikon, Tokyo). The percentage of the tumor area/total area was also quantified by ImageJ software.
# B16F10-Nex2 tumor cells (2×10^5) in RPMI (100 μl) were injected in both animal groups in the tail veins on day 0. Animals were sacrificed on day 22, or 10 days after the last administration of the peptide, and their lungs were examined for dark melanotic nodules.
# C57Bl6 mice were intravenously challenged with 4×10^5 syngeneic B16F10-Nex2 cells in 0.1 ml of RPMI without FBS.
# Mice were injected with 5×10^5 B16F10-Nex2 cells i.v. suspended in 100 μl PBS. […] Imiquimod at 50 μg/100 μl was injected i.p. in 3 alternate days; CpG ODN 1585, i.p., in two alternate days; and Poly (I:C), i.p., in two alternate days. After 15 days of tumor challenge, the animals were sacrificed, the lungs were removed and the pulmonary nodules were counted.
# [2] = system: B16F10-Nex2 melanoma; assay: Subcutaneous melanoma model; format: in vivo, C57BL/6 mice; settings: i.p. administration
# Description: as §1, with “Tumor Cell Growth In Vitro and In Vivo Details of the in vitro tumor cell growth, cytotoxicity tests, determination of viable cells and in vivo protection experiments with B16F10 cells in a mouse metastatic model are described in Polonelli et al. (PLoS One. 3(6):e2371, 2008) and Dobroff et al. (Transl. Onc., 3: 204-217, 2010).” left out
# [3] = system: CD11c+ cells; assay: TGF-beta1 ELISA of CD11c+ cells from lymphoid organs of melanoma-bearing treated mice; format: in vivo, C57Bl6 mice; settings: 300 μg/dose i.p., day 17
# Description: Animals were sacrificed on day 17 and their lungs, cervical and axillary lymph nodes and spleen were processed for examination. Lymph nodes and spleen were macerated separately, DMEM was added and passed through a cell strainer. CD11c+ cells were isolated using mouse CD11c+ beads and magnetic sorting. Cells were suspended in R10 medium and plated in […] at 10^6 cells/well. Cells were incubated for 24 h with or without tumor cell lysate (B16F10 stimulus). The supernatant was used in a TGF-beta1 ELISA test.
# [4] = system: B16F10-Nex2 cells; assay: Anti-melanoma antibodies in sera of treated mice; format: in vivo; settings: 1/5 diluted sera; BSA treated or untreated tumor cells
# [5] = system: Myeloid DCs stimulated with recombinant mouse MIF; assay: Western blotting of MIF signalling in dendritic cells pre-treated with peptide; format: cell-based
# Description: Protein lysates were separated by electrophoresis, and immunoblotting analyses were performed for: total AKT, total p44/42 MAPK (ERK1/2), total IKKα, total IkBα, total NF-kB p65, phospho-AKT (Ser473), phospho-ERK1/2 (Thr202/Tyr204), phospho-IKKα/β (Ser176/180), phospho-IkBα (Ser32) and phospho-NFkB p65 (Ser536). GAPDH was assayed for loading control. HRP-conjugated secondary antibodies were used, followed by incubation with the ECL substrate (Millipore, Billerica, Mass.). All primary and secondary antibodies were purchased from Cell Signaling Technologies (Beverly, Mass., USA). Anti-CD74 receptor was also assayed (Abcam, Cambridge, UK). Phosphorylation ratios were quantified using ImageJ software. Results are represented in arbitrary units normalized to untreated control lanes.
# Early incubation with MIF increased p-Akt (Ser473). […] MIF also triggered p-ERK1/2 formation in DCs.
# [6] = system: human mo-DC from healthy donors; assay: mo-DC generated under tolerogenic, TNF-alpha or LPS conditions, flow cytometry; format: cell-based
# Description: To further evaluate and confirm this property, mo-DC were generated from healthy donors cells in three different conditions, all in the presence of GM-CSF (50 ng/mL) and IL-4 (50 ng/mL). To one group of cells at day 5, TGF-beta ([…]) and IL-10 (1 ug/mL) were added; to a second group, at day 5, TNF-alpha was added and to a third group, LPS (100 ng/mL) was added at day 6. The first condition is known to induce phenotypic changes in mo-DC consistent with a tolerogenic activity of the cells, while both other conditions generate mature mo-DC, with LPS representing a stronger maturation stimulus than TNF-alpha. […] At day 7 all cells were harvested and analyzed by flow cytometry.
# [7] = system: B16F10-Nex2 melanoma cells; settings: as determined in U.S. Pat. No. 9,193,797 B2; cited from earlier work
# [8] = tolerogenic conditions (TGF-beta+IL-10)
substance,measurement,setting,value
"[CARGETARATFAYWGQGC], NH2 (C-C) [Rb9]",protection in the metastatic model,[1]; 50-100 μg i.p. doses,significant protection
same,efficiency of administration route for antitumor protection,[1]; i.d. route compared with i.p. and i.v.,mostly efficient
same,antitumor activity (pulmonary nodules),"[1]; i.p., alone, Rb9 300 μg 5 consecutive days, Imiquimod 50 μg 3 alternate days, CpG and Poly (I:C) two alternate days, 15 days after challenge",Antitumor activities of Rb9 and Imiquimod were the same
same,antitumor activity of the combination of Rb9 and Imiquimod,"[1]; i.p., 15 days after challenge",not additive
same,number of lung tumor cell nodules (protection),"[1]; immunocompetent C57Bl6 mice, 250 μg i.p. on days 1,3,5,7,9,11, lungs on day 22",clearly protective
same,"best concentrations for protection, dose range per animal",[1]; metastatic model,200 to 300 µg
same,response of subcutaneous growing melanoma to peptide,[2],much more resistant; also recorded: resistant
same,TGF-beta in tumor-lysate stimulated CD11c+ cells from the spleen,[3],increased
same,TGF-beta secreted by lymph node CD11c+ cells,[3]; vs vehicle (PBS) control cells stimulated by melanoma lysate,greatly reduced
same,"reactivity of sera with B16F10-Nex2 cells, i.d. relative to i.p. administration",[4],4-5 times
same,ERK1/2 phosphorylation,"[5]; DCs pre-incubated with peptide 6 h, then rMIF",reduced p-ERK1/2
same,Akt phosphorylation (Ser473),"[5]; DCs pre-incubated with peptide 6 h, then rMIF, early (2 min), vs rMIF alone",Phosphorylation increased even more
same,NFkB p65 phosphorylation (Ser536),"[5]; DCs pre-stimulated 6 h, then recombinant-MIF, 5, 10 and 20 min",tended to attenuate the MIF response; also recorded: decreased intracellular NFkB p65 phosphorylation
same,phosphorylation of IKKαβ and IkBα,"[5]; DCs pre-stimulated 6 h, then recombinant-MIF, short incubation",tended to attenuate the MIF response; also recorded: decreased IKKαβ and IkBα
same,number of CD11c+HLA-DR+ cells,[6]; LPS-treated cells,decreased the number of cells
same,percentage of CD11c+HLA-DR+ cells,[6]; TGF-beta+IL-10 group,increased the percentage of cells
same,percentage of CD11c+HLA-DR+ cells,[6]; TNF group,little effect
same,co-stimulatory potential (CD80 and CD86 double-positive cells),[6]; mild stimulus (TNF-alpha),partially inhibitory
same,maturation of mo-DC (HLA-DR+CD83+),[6]; mild stimulus (TNF-alpha),enhanced their maturation
same,co-stimulatory potential (CD80 and CD86 double-positive cells),[6]; strongly stimulated by LPS,clearly inhibitory
same,maturation of mo-DC (HLA-DR+CD83+),[6]; strongly stimulated by LPS,inhibitory
same,co-stimulatory potential (CD80 and CD86 double-positive cells),[6]; [8],increased their co-stimulatory potential
same,maturation of mo-DC (HLA-DR+CD83+),[6]; [8],increased the maturation
same,in vivo protection against metastatic melanoma by CDRs of RebMab200,[7],displayed this in vivo protection
